Assay results as given in patent US9227971B2, “Pyrazolo[1,5-a]pyrimidine compounds as mTOR inhibitors” (Merck Sharp & Dohme Corp., priority 2010, dated 2016).
Read-outs that look alike come from different tables or passages of the source.

Experiments:
[1] = test system: phosphorylated AKT Ser473 (pAKT S473), mTORC2 activity, PC3 cells; assay: mTOR target engagement assay, immunofluorescent cell-based, pAKT S473 readout (mTORC2 activity)
Procedure, shortened: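 After blocking, cells were stained overnight at 4 °C with anti-pAKT S473 antibody, then a fluorescent secondary; inhibition was read as reduced fluorescence intensity.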

[2] = test system: phosphorylated 4E-BP1 Thr37/46 (p4E-BP1 Thr37/46), mTORC1 activity, PC3 cells; assay: mTOR target engagement assay, immunofluorescent cell-based, p4E-BP1 Thr37/46 readout (mTORC1 activity); details: read-out: p4E-BP1 Thr37/46 IC50
Procedure, shortened: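 Read-out is fluorescence intensity of immunostained p4E-BP1 Thr37/46 in fixed PC3 cells, fitted to a logistic curve for IC50 with DMSO-only wells as top. Cells had been exposed to serial compound dilutions for ninety minutes at 37° C in 5% FBS medium with 0.25% DMSO.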

Compound	IC50 ([1]; Homo sapiens, PC-3, PC3 cells) [nM]	IC50 ([2]; Homo sapiens, PC-3, PC3 cells) [nM]	IC50 ([1]; PC3 cells) [nM]	IC50 ([2]; PC3 cells) [nM]
Nc1c(C2CC2)c([C@@]2(O)C[C@H]3CC[C@@H](C2)N3C(=O)c2nnc[nH]2)nc2c(-c3ccc(-c4ccccc4)nc3)cnn12 [Compound 8.25, ((1R,3s,5S)-3-(7-amino-6-cyclopropyl-3-(6-phenylpyridin-3-yl)pyrazolo[1,5-a]pyrimidin-5-yl)-3-hydroxy-8-azabicyclo[3.2.1]octan-8-yl)(4H-1,2,4-triazol-3-yl)methanone]	100 to 1000	1000 to 10000		
CC(=O)c1c(C2CC3COCC(C2)N3C(=O)c2nc[nH]n2)nc2c(-c3cnn(-c4ccccc4)c3)cnn2c1N (stereo not shown) [Compound 8.26, 1-(5-(9-(1H-1,2,4-triazole-3-carbonyl)-3-oxa-9-azabicyclo[3.3.1]nonan-7-yl)-7-amino-3-(1-phenyl-1H-pyrazol-4-yl)pyrazolo[1,5-a]pyrimidin-6-yl)ethanone]	1 to 100	100 to 1000		
CC(=O)c1c(C2CC3COCC(C2)N3C(=O)c2nc[nH]n2)nc2c(-c3ccc(-c4ccccc4)nc3)cnn2c1N (stereo not shown) [Compound 8.27, 1-(5-(9-(1H-1,2,4-triazole-3-carbonyl)-3-oxa-9-azabicyclo[3.3.1]nonan-7-yl)-7-amino-3-(6-phenylpyridin-3-yl)pyrazolo[1,5-a]pyrimidin-6-yl)ethanone]	1 to 100	100 to 1000		
CC(=O)c1c(C2CC3COCC(C2)N3C(=O)CO)nc2c(-c3ccc(-c4ccccc4)nc3)cnn2c1N (stereo not shown) [Compound 8.28, 1-(7-(6-acetyl-7-amino-3-(6-phenylpyridin-3-yl)pyrazolo[1,5-a]pyrimidin-5-yl)-3-oxa-9-azabicyclo[3.3.1]nonan-9-yl)-2-hydroxyethanone]	100 to 1000	100 to 1000		
CS(=O)(=O)c1c(C2CC3COCC(C2)N3C(=O)c2nc[nH]n2)nc2c(-c3ccc(-c4ccccc4)nc3)cnn2c1N (stereo not shown) [Compound 8.29, (7-(7-amino-6-(methylsulfonyl)-3-(6-phenylpyridin-3-yl)pyrazolo[1,5-a]pyrimidin-5-yl)-3-oxa-9-azabicyclo[3.3.1]nonan-9-yl)(1H-1,2,4-triazol-3-yl)methanone]	1 to 100	1 to 100		
CC(=O)c1c(C2CC3CCCC(C2)N3C(=O)c2nc[nH]n2)nc2c(-c3ccc(-c4ccccc4)nc3)cnn2c1N (stereo not shown) [Compound 8.33, 1-(5-(9-(1H-1,2,4-triazole-3-carbonyl)-9-azabicyclo[3.3.1]nonan-3-yl)-7-amino-3-(6-phenylpyridin-3-yl)pyrazolo[1,5-a]pyrimidin-6-yl)ethanone]	100 to 1000	100 to 1000		
CC(=O)c1c([C@@H]2C[C@H]3CC(O)[C@@H](C2)N3C(=O)c2nc[nH]n2)nc2c(-c3ccc(-c4ccccc4)nc3)cnn2c1N (stereo partly drawn) [Compound 8.34, 1-(7-amino-5-((1S,3R,5R)-6-hydroxy-8-(1H-1,2,4-triazole-3-carbonyl)-8-azabicyclo[3.2.1]octan-3-yl)-3-(6-phenylpyridin-3-yl)pyrazolo[1,5-a]pyrimidin-6-yl)ethanone]	1 to 100	1 to 100		
CC(=O)c1c([C@@H]2C[C@H]3CC(O)[C@@H](C2)N3C(=O)CO)nc2c(-c3ccc(-c4ccccc4)nc3)cnn2c1N (stereo partly drawn) [Compound 8.35, 1-((1S,3R,5R)-3-(6-acetyl-7-amino-3-(6-phenylpyridin-3-yl)pyrazolo[1,5-a]pyrimidin-5-yl)-6-hydroxy-8-azabicyclo[3.2.1]octan-8-yl)-2-hydroxyethanone]	1 to 100	1 to 100		
CC(=O)c1c(C2CC3CS(=O)(=O)CC(C2)N3C(=O)c2nc[nH]n2)nc2c(-c3ccc(-c4ccccc4)nc3)cnn2c1N (stereo not drawn) [Compound 8.38, endo/exo-7-[6-acetyl-7-amino-3-(6-phenyl-3-pyridinyl)pyrazolo[1,5-a]pyrimidin-5-yl]-9-(4h-1,2,4-triazol-3-ylcarbonyl)-3-thia-9-azabicyclo[3.3.1]nonane, 3,3-dioxide]	100 to 1000	100 to 1000		
Nc1c(C2(O)CC2)c([C@@H]2C[C@H]3CC[C@@H](C2)N3C(=O)c2nc[nH]n2)nc2c(-c3ccc(-c4ccccc4)nc3)cnn12 [Compound 8.39]	1000 to 10000	1000 to 10000		
NC(=O)c1c([C@@H]2C[C@H]3CC[C@@H](C2)N3C(=O)c2nc[nH]n2)nc2c(-c3ccc(-c4ccccc4)nc3)cnn2c1N [Compound 8.40]	1 to 100	1 to 100		
CNc1c(S(C)(=O)=O)c([C@@H]2C[C@H]3CC[C@@H](C2)N3C(=O)c2nnc[nH]2)nc2c(-c3ccc(-c4ccccc4)nc3)cnn12 [Compound 8.41, ((1R,3s,5S)-3-(7-(methylamino)-6-(methylsulfonyl)-3-(6-phenylpyridin-3-yl)pyrazolo[1,5-a]pyrimidin-5-yl)-8-azabicyclo[3.2.1]octan-8-yl)(4H-1,2,4-triazol-3-yl)methanone]	1 to 100	100 to 1000		
CS(=O)(=O)c1c([C@@H]2C[C@H]3CC[C@@H](C2)N3C(=O)c2nnc[nH]2)nc2c(-c3ccc(CO)c(F)c3)cnn2c1N [Compound 8.42, ((1R,3s,5S)-3-(7-amino-3-(3-fluoro-4-(hydroxymethyl)phenyl)-6-(methylsulfonyl)pyrazolo[1,5-a]pyrimidin-5-yl)-8-azabicyclo[3.2.1]octan-8-yl)(4H-1,2,4-triazol-3-yl)methanone]	1 to 100	1 to 100		
CS(=O)(=O)c1c([C@@H]2C[C@H]3CC[C@@H](C2)N3C(=O)CO)nc2c(-c3ccc(CO)c(F)c3)cnn2c1N [Compound 8.43, 1-((1R,3s,5S)-3-(7-amino-3-(3-fluoro-4-(hydroxymethyl)phenyl)-6-(methylsulfonyl)pyrazolo[1,5-a]pyrimidin-5-yl)-8-azabicyclo[3.2.1]octan-8-yl)-2-hydroxyethanone]	100 to 1000	100 to 1000		
CS(=O)(=O)c1c([C@@H]2C[C@H]3CC[C@@H](C2)N3C(=O)c2nnc[nH]2)nc2c(-c3ccc(C4(N)CC4)c(F)c3)cnn2c1N [Compound 8.44, ((1R,3s,5S)-3-(7-amino-3-(4-(1-aminocyclopropyl)-3-fluorophenyl)-6-(methylsulfonyl)pyrazolo[1,5-a]pyrimidin-5-yl)-8-azabicyclo[3.2.1]octan-8-yl)(4H-1,2,4-triazol-3-yl)methanone]	1000 to 10000	1000 to 10000		
CCN/C(=N\CCCN(C)C)n1ncc(C(=O)N2[C@@H]3CC[C@H]2C[C@H](c2nc4c(-c5ccc(-c6ccccc6F)nc5)cnn4c(N)c2S(C)(=O)=O)C3)n1 [Compound 8.46, (E)-4-((1R,3s,5S)-3-(7-amino-3-(6-(2-fluorophenyl)pyridin-3-yl)-6-(methylsulfonyl)pyrazolo[1,5-a]pyrimidin-5-yl)-8-azabicyclo[3.2.1]octane-8-carbonyl)-N′-(3-(dimethylamino)propyl)-N-ethyl-2H-1,2,3-triazole-2-carboximidamide]	1 to 100	100 to 1000		
CC(=O)c1c([C@@H]2C[C@H]3CC[C@@H](C2)N3C(=O)c2nnc[nH]2)nc2c(-c3ccc(NC4CC4)nc3)cnn2c1N [Compound 8.47, 1-(5-((1R,3s,5S)-8-(4H-1,2,4-triazole-3-carbonyl)-8-azabicyclo[3.2.1]octan-3-yl)-7-amino-3-(6-(cyclopropylamino)pyridin-3-yl)pyrazolo[1,5-a]pyrimidin-6-yl)ethanone]			1 to 100	1 to 100
CC(=O)c1c([C@@H]2C[C@H]3CC[C@@H](C2)N3C(=O)c2nnc[nH]2)nc2c(-c3ccc(N)nc3)cnn2c1N [Compound 8.48, 1-(5-((1R,3s,5S)-8-(4H-1,2,4-triazole-3-carbonyl)-8-azabicyclo[3.2.1]octan-3-yl)-7-amino-3-(6-aminopyridin-3-yl)pyrazolo[1,5-a]pyrimidin-6-yl)ethanone]	1 to 100	1 to 100		
CC(=O)c1c([C@@H]2C[C@H]3CC[C@@H](C2)N3C(=O)c2nnc[nH]2)nc2c(-c3cnc(NC4CC4)nc3)cnn2c1N [Compound 8.49, 1-(5-((1R,3s,5S)-8-(4H-1,2,4-triazole-3-carbonyl)-8-azabicyclo[3.2.1]octan-3-yl)-7-amino-3-(2-(cyclopropylamino)pyrimidin-5-yl)pyrazolo[1,5-a]pyrimidin-6-yl)ethanone]			1 to 100	1 to 100
CCC(=O)NNc1ccc(-c2cnn3c(N)c(C(C)=O)c([C@@H]4C[C@H]5CC[C@@H](C4)N5C(=O)CO)nc23)cn1 [Compound 8.52, N′-(5-(6-acetyl-7-amino-5-((1R,3s,5S)-8-(2-hydroxyacetyl)-8-azabicyclo[3.2.1]octan-3-yl)pyrazolo[1,5-a]pyrimidin-3-yl)pyridin-2-yl)propionohydrazide]	1000 to 10000	> 10000		
CS(=O)(=O)c1c([C@@H]2C[C@H]3CC[C@@H](C2)N3C(=O)c2nnc[nH]2)nc2c(-c3ccc(OC4CCC4)nc3)cnn2c1N [Compound 8.53, ((1R,3s,5S)-3-(7-amino-3-(6-cyclobutoxypyridin-3-yl)-6-(methylsulfonyl)pyrazolo[1,5-a]pyrimidin-5-yl)-8-azabicyclo[3.2.1]octan-8-yl)(4H-1,2,4-triazol-3-yl)methanone]	1000 to 10000	1000 to 10000		
CS(=O)(=O)c1c([C@@H]2C[C@H]3CC[C@@H](C2)N3C(=O)c2nnc[nH]2)nc2c(-c3ccc(OCC4CC4)nc3)cnn2c1N [Compound 8.54, ((1R,3s,5S)-3-(7-amino-3-(6-(cyclopropylmethoxy)pyridin-3-yl)-6-(methylsulfonyl)pyrazolo[1,5-a]pyrimidin-5-yl)-8-azabicyclo[3.2.1]octan-8-yl)(4H-1,2,4-triazol-3-yl)methanone]	> 10000	> 10000		
Nc1c(C2CC2)c([C@@H]2C[C@H]3CC[C@@H](C2)N3C(=O)c2nnc[nH]2)nc2c(-c3cnc4c(c3)OCc3cn[nH]c3-4)cnn12 [Compound 8.55]	1000 to 10000	1000 to 10000		
